From PubChem BioAssay (NCI)
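Step 1: Grow cells in 96-well plates. Step 2: Expose to compound for 48 hours at 5 concentrations. Step 3: Interpolate endpoints linearly; if unreached, use highest concentration. The concentration for full growth arrest is given as TGI.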 *1 amine or outer side, *2 acyl side, *3 side chain or, on linkers, in order; H or OH if unused. Where a SMILES comes first, the peptide text is derived from it. Bridges are numbered along the chain shown (N, C = ends). [ ]: non-standard residue; d: D form. ξ: configuration not given here. X35 = CC[C@H](C)[C@@H](N[*:1])[C@@H](O)CC(=O)O[C@H](C(=O)[C@H](C)C(=O)[*:2])C(C)C; NMeY = CN[C@@H](Cc1ccc(O)cc1)C(=O)O; dNMeL = CN[C@H](CC(C)C)C(=O)O; ξΔPro = O=C(O)C1C=CCN1

Columns and labels:
Test in all cases: NCI anticancer screen, dose series, 48 h
UO-31 renal = tested on: UO-31 renal
M14 melanoma = tested on: M14 melanoma
A498 renal = tested on: A498 renal
HCT-116 colon = tested on: HCT-116 colon
CCRF-CEM leukemia = tested on: CCRF-CEM leukemia
RXF 393 renal = tested on: RXF 393 renal
SF-295 CNS = tested on: SF-295 CNS
OVCAR-8 ovarian = tested on: OVCAR-8 ovarian
HS 578T breast = tested on: HS 578T breast
A549 NSCLC = tested on: A549 NSCLC
MDA-N = tested on: MDA-N

Nc1ccc2c(c1)NC(=O)[C@@H]1CCCN1C2=O
TGI (UO-31 renal): > 100 µM | TGI (M14 melanoma): > 100 µM | TGI (A498 renal): > 100 µM | TGI (HCT-116 colon): > 100 µM | TGI (CCRF-CEM leukemia): > 100 µM | TGI (RXF 393 renal): > 100 µM | TGI (SF-295 CNS): > 100 µM | TGI (OVCAR-8 ovarian): > 100 µM | TGI (HS 578T breast): > 100 µM | TGI (A549 NSCLC): > 100 µM | TGI (MDA-N): > 100 µM

COc1cc2c(cc1O)CCN(C)[C@H]2Cc1ccc(Oc2c(O)c(OC)cc3c2C[C@H]2c4c(c(OC)c(OC)c(OC)c4-3)CCN2C)cc1
TGI (UO-31 renal): 9.77 µM | TGI (M14 melanoma): 10.9 µM | TGI (A498 renal): 12.7 µM | TGI (HCT-116 colon): 7.98 µM | TGI (CCRF-CEM leukemia): 9.28 µM | TGI (RXF 393 renal): 6.46 µM | TGI (SF-295 CNS): 11.3 µM | TGI (OVCAR-8 ovarian): 13.1 µM | TGI (HS 578T breast): 17.7 µM | TGI (A549 NSCLC): 10 µM | TGI (MDA-N): 9.95 µM

N#Cc1c(N2CCN(c3ccc([N+](=O)[O-])cc3)CC2)[n+](=O)c2ccc(-c3ccc([N+](=O)[O-])cc3)cc2n1[O-]
TGI (UO-31 renal): > 100 µM | TGI (M14 melanoma): > 58.9 µM | TGI (A498 renal): > 100 µM | TGI (HCT-116 colon): > 100 µM | TGI (CCRF-CEM leukemia): > 100 µM | TGI (RXF 393 renal): > 100 µM | TGI (SF-295 CNS): > 100 µM | TGI (OVCAR-8 ovarian): > 100 µM | TGI (HS 578T breast): > 100 µM | TGI (A549 NSCLC): > 100 µM | TGI (MDA-N): > 100 µM

CC1=NN2C(=N)/C(=C/c3ccccc3)C(=O)N=C2S1
TGI (UO-31 renal): > 100 µM | TGI (M14 melanoma): > 100 µM | TGI (A498 renal): > 100 µM | TGI (HCT-116 colon): > 100 µM | TGI (CCRF-CEM leukemia): > 100 µM | TGI (RXF 393 renal): > 100 µM | TGI (SF-295 CNS): > 100 µM | TGI (OVCAR-8 ovarian): > 100 µM | TGI (HS 578T breast): > 100 µM | TGI (A549 NSCLC): > 100 µM | TGI (MDA-N): > 100 µM

Cc1ccc(/C=N\NC(=O)c2ccncc2)s1
TGI (UO-31 renal): > 100 µM | TGI (M14 melanoma): > 100 µM | TGI (A498 renal): > 100 µM | TGI (HCT-116 colon): > 100 µM | TGI (CCRF-CEM leukemia): > 100 µM | TGI (RXF 393 renal): > 100 µM | TGI (SF-295 CNS): > 100 µM | TGI (OVCAR-8 ovarian): > 100 µM | TGI (HS 578T breast): > 100 µM | TGI (A549 NSCLC): > 100 µM | TGI (MDA-N): > 100 µM

CC(=O)Nc1ccc(/C=C2/NC(=S)N(/C=C3\C(=O)Oc4ccccc4C3=O)C2=O)cc1
TGI (UO-31 renal): > 100 µM | TGI (M14 melanoma): > 100 µM | TGI (A498 renal): > 100 µM | TGI (HCT-116 colon): > 100 µM | TGI (CCRF-CEM leukemia): > 100 µM | TGI (RXF 393 renal): > 100 µM | TGI (SF-295 CNS): > 100 µM | TGI (OVCAR-8 ovarian): > 100 µM | TGI (HS 578T breast): > 100 µM | TGI (A549 NSCLC): > 100 µM | TGI (MDA-N): > 100 µM

CC[C@H](C)[C@H]1NC(=O)[C@@H](NC(=O)[C@@H](CC(C)C)N(C)C(=O)C2C=CCN2)[C@@H](C)OC(=O)[C@H](Cc2ccc(OC)cc2)N(C)C(=O)[C@@H]2CCCN2C(=O)[C@H](CC(C)C)NC(=O)[C@@H](C)C(=O)[C@H](C(C)C)OC(=O)C[C@@H]1O (some centres not stated) (H-[ξΔPro][dNMeL]T[X35]LP[NMeY](Me); ester 3-C)
TGI (UO-31 renal): 0.303 µM | TGI (M14 melanoma): 0.111 µM | TGI (A498 renal): 0.0139 µM | TGI (HCT-116 colon): 5.41 µM | TGI (CCRF-CEM leukemia): > 50 µM | TGI (RXF 393 renal): 0.0285 µM | TGI (SF-295 CNS): 0.055 µM | TGI (OVCAR-8 ovarian): 0.0118 µM | TGI (HS 578T breast): < 0.005 µM | TGI (A549 NSCLC): > 50 µM | TGI (MDA-N): 0.081 µM

N#C/C(=C1/c2cc([N+](=O)[O-])ccc2-c2c1cc([N+](=O)[O-])cc2[N+](=O)[O-])N1CCCCC1
TGI (UO-31 renal): > 100 µM | TGI (M14 melanoma): > 100 µM | TGI (A498 renal): > 100 µM | TGI (HCT-116 colon): > 100 µM | TGI (CCRF-CEM leukemia): > 100 µM | TGI (RXF 393 renal): > 100 µM | TGI (SF-295 CNS): > 100 µM | TGI (OVCAR-8 ovarian): > 100 µM | TGI (HS 578T breast): > 100 µM | TGI (A549 NSCLC): > 100 µM | TGI (MDA-N): > 100 µM

CC(=O)O[C@H]1CCC2[C@@H]3CCC4NC(=O)C(C#N)C[C@]4(C)C3CC[C@@]21C (some centres not stated)
TGI (UO-31 renal): > 10 µM | TGI (M14 melanoma): > 10 µM | TGI (A498 renal): > 10 µM | TGI (HCT-116 colon): > 10 µM | TGI (CCRF-CEM leukemia): > 10 µM | TGI (RXF 393 renal): > 10 µM | TGI (SF-295 CNS): > 10 µM | TGI (OVCAR-8 ovarian): > 10 µM | TGI (HS 578T breast): > 10 µM | TGI (A549 NSCLC): > 10 µM | TGI (MDA-N): > 10 µM

COc1ccc(C2SCC(=O)N2NC(=O)C(C)Oc2ccc(Cl)cc2Cl)cc1 (configuration not stated)
TGI (UO-31 renal): > 100 µM | TGI (M14 melanoma): > 100 µM | TGI (A498 renal): 76.4 µM | TGI (HCT-116 colon): > 100 µM | TGI (RXF 393 renal): 59.2 µM | TGI (SF-295 CNS): > 100 µM | TGI (OVCAR-8 ovarian): > 100 µM | TGI (HS 578T breast): > 100 µM | TGI (A549 NSCLC): > 100 µM | TGI (MDA-N): > 100 µM

CC(C#N)N(CCc1ccccc1)C(=O)c1ccccc1 (configuration not stated)
TGI (UO-31 renal): > 100 µM | TGI (M14 melanoma): > 100 µM | TGI (A498 renal): > 100 µM | TGI (HCT-116 colon): > 100 µM | TGI (CCRF-CEM leukemia): > 100 µM | TGI (RXF 393 renal): > 100 µM | TGI (SF-295 CNS): > 100 µM | TGI (OVCAR-8 ovarian): > 100 µM | TGI (HS 578T breast): > 100 µM | TGI (A549 NSCLC): > 100 µM | TGI (MDA-N): > 100 µM

CCN1CCCn2c(=O)[nH]c3cc(Br)cc1c32
TGI (UO-31 renal): > 100 µM | TGI (M14 melanoma): > 100 µM | TGI (A498 renal): > 100 µM | TGI (HCT-116 colon): > 100 µM | TGI (CCRF-CEM leukemia): > 100 µM | TGI (RXF 393 renal): 54.6 µM | TGI (SF-295 CNS): > 100 µM | TGI (OVCAR-8 ovarian): > 100 µM | TGI (HS 578T breast): 97.2 µM | TGI (A549 NSCLC): > 100 µM | TGI (MDA-N): > 100 µM

COc1cc2oc(-c3ccc4c(c3)OCO4)c(OC)c(=O)c2c(O)c1OC
TGI (UO-31 renal): > 50 µM | TGI (M14 melanoma): > 50 µM | TGI (A498 renal): > 50 µM | TGI (HCT-116 colon): > 50 µM | TGI (CCRF-CEM leukemia): > 50 µM | TGI (RXF 393 renal): > 50 µM | TGI (SF-295 CNS): > 50 µM | TGI (OVCAR-8 ovarian): > 50 µM | TGI (HS 578T breast): > 50 µM | TGI (A549 NSCLC): > 50 µM | TGI (MDA-N): > 50 µM

O=c1nc2ccc3sc4ccccc4c(=O)c3n2c(=O)[nH]1
TGI (UO-31 renal): > 100 µM | TGI (A498 renal): > 100 µM | TGI (HCT-116 colon): > 100 µM | TGI (CCRF-CEM leukemia): > 100 µM | TGI (RXF 393 renal): > 100 µM | TGI (SF-295 CNS): > 100 µM | TGI (OVCAR-8 ovarian): > 100 µM | TGI (HS 578T breast): > 100 µM | TGI (A549 NSCLC): > 100 µM | TGI (MDA-N): > 100 µM
